Data published in patent publication US11629118B2, “Formulations with improved stability” (INSPIRNA, INC., priority 2017, dated 2023).
Converted amounts (≈) assume the structure as drawn.

Legend:
[1] = Solubility study of Compound (II) in lipid excipients and surfactants; type: physicochemical; settings: for solubility: thermodynamic from solid
Experimental: Compound (II) HCl and Compound (II) free base was weighed into vials and the appropriate amount of excipient was added to achieve the desired concentration. Heating and sonication was used, if necessary, to achieve clear solutions. Limits of solubility of Compound (II) free base and Compound (II) HCl (amorphous form) are noted in Table 1.

[2] = Further solubility study in Maisine 35-1:Gelucire 44/14:Lauroglycol 90 mixtures; settings: 40-80% (w/w) Maisine 35-1; 20-40% Gelucire 44/14; 0-20% Lauroglycol 90
Experimental: (§1) A further solubility study of Compound (II) was conducted using lipid excipients and surfactants. Maisine 35-1 (glycerol linoleates):Gelucire 44/14 (lauroyl macrogol-32 glycerides):Lauroglycol 90 (propylene glycol monolaurate) mixtures were tested to explore the optimal combination. The following ranges of each substance were tested: (1) 40-80% (w/w) Maisine 35-1; (2) 20-40% (w/w) Gelucire 44/14; and (3) 0-20% (w/w) Lauroglycol 90.

[3] = Binary stressed-stability / compatibility study with excipients; type: physicochemical; settings: in contact with Maisine 35-1 and Gelucire 44/14 (70:30 w/w)
Excerpt: The compatibility of Compound ([…]) with the following solubilizing/emulsifying excipients: Maisine 35-1; Gelucire 44/14; sodium oleate; sodium stearate; vitamin E TPGS; lysine; and sodium EDTA.

physchem = settings: oil or lipid
Experimental: as §1

**Q.** Which results are given for `C[C@H](CCOc1cccc(CC(=O)O)c1)N(Cc1cccc(C(F)(F)F)c1Cl)CC(c1ccccc1)c1ccccc1.Cl` [Compound (II) HCl salt]?
**A.** Limit of solubility in Capmul MCM ([1]; excipient Capmul MCM): 50 mg/mL; Limit of solubility in Capryol 90 ([1]; excipient Capryol 90): 150 mg/mL; Limit of solubility in Capryol PGMC ([1]; excipient Capryol PGMC): 150 mg/mL; Limit of solubility in Cremophor EL ([1]; excipient Cremophor EL): 150 mg/mL; Limit of solubility in Cremophor RH-40 ([1]; excipient Cremophor RH-40): 150 mg/mL; Limit of solubility in Ethanol ([1]; excipient Ethanol): 200 mg/mL; Limit of solubility in Gelucire 44/14 ([1]; excipient Gelucire 44/14): 100 mg/mL; Limit of solubility in Gelucire 50/13 ([1]; excipient Gelucire 50/13): 50 mg/mL; Limit of solubility in Labrafil M 1944 CS ([1]; excipient Labrafil M 1944 CS): 25 mg/mL; Limit of solubility in Labrafil M 2125 CS ([1]; excipient Labrafil M 2125 CS): 25 mg/mL; Limit of solubility in Labrafil M 2130 CS ([1]; excipient Labrafil M 2130 CS): 25 mg/mL; Limit of solubility in Labrasol ([1]; excipient Labrasol): 150 mg/mL; Limit of solubility in Lauroglycol 90 ([1]; excipient Lauroglycol 90): 150 mg/mL; Limit of solubility in Lauroglycol FCC ([1]; excipient Lauroglycol FCC): 100 mg/mL; Limit of solubility in Maisine 35-1 ([1]; excipient Maisine 35-1): 150 mg/mL; Limit of solubility in PEG-200 ([1]; excipient PEG-200): 200 mg/mL; Limit of solubility in PEG-300 ([1]; excipient PEG-300): 200 mg/mL; Limit of solubility in PEG-400 ([1]; excipient PEG-400): 200 mg/mL; Limit of solubility in Peceol ([1]; excipient Peceol): 150 mg/mL; Limit of solubility in Phosal 50-PG ([1]; excipient Phosal 50-PG): 200 mg/mL; Limit of solubility in Phosal 53 MCT ([1]; excipient Phosal 53 MCT): 150 mg/mL; Limit of solubility in Plurol Oleique CC 497 ([1]; excipient Plurol Oleique CC 497): 50 mg/mL; Limit of solubility in Propylene Glycol ([1]; excipient Propylene Glycol): 200 mg/mL; Limit of solubility in Transcutol ([1]; excipient Transcutol): 150 mg/mL; Limit of solubility in Tween-20 ([1]; excipient Tween-20): 200 mg/mL; Limit of solubility in Tween-80 ([1]; excipient Tween-80): 200 mg/mL; Limit of solubility in VitE-TPGS ([1]; excipient VitE-TPGS): 150 mg/mL; Solubility in Maisine 35-1:Gelucire 44/14:Lauroglycol 90 mixtures [2]: 150 to 200 mg/mL

**Q.** For `C[C@H](CCOc1cccc(CC(=O)O)c1)N(Cc1cccc(C(F)(F)F)c1Cl)CC(c1ccccc1)c1ccccc1` [Compound (II), 2-{3-[(3R)-3-({[2-chloro-3-(trifluoromethyl)phenyl]methyl}(2,2-diphenylethyl)amino)butoxy]phenyl}acetic acid], which solubility ([1]; aqueous with cosolvent or surfactant or cyclodextrin, excipient Tween-20, read-out: Limit of solubility in Tween-20) is on record?
**A.** > 200 mg/mL

**Q.** And the solubility ([1]; aqueous with cosolvent or surfactant or cyclodextrin, excipient Tween-80, read-out: Limit of solubility in Tween-80)?
**A.** > 200 mg/mL

**Q.** And the solubility ([1]; aqueous with cosolvent or surfactant or cyclodextrin, excipient VitE-TPGS, read-out: Limit of solubility in VitE-TPGS)?
**A.** > 200 mg/mL

**Q.** And the solubility ([1]; oil or lipid, excipient Capryol 90, read-out: Limit of solubility in Capryol 90)?
**A.** > 200 mg/mL

**Q.** And the solubility ([1]; oil or lipid, excipient Capryol PGMC, read-out: Limit of solubility in Capryol PGMC)?
**A.** > 200 mg/mL

**Q.** What about the solubility ([1]; oil or lipid, excipient Cremophor EL, read-out: Limit of solubility in Cremophor EL) of the same molecule?
**A.** > 200 mg/mL

**Q.** And the solubility ([1]; oil or lipid, excipient Cremophor RH-40, read-out: Limit of solubility in Cremophor RH-40)?
**A.** > 200 mg/mL

**Q.** What about the solubility ([1]; oil or lipid, excipient Gelucire 44/14, read-out: Limit of solubility in Gelucire 44/14) of the same molecule?
**A.** > 200 mg/mL

**Q.** What about the solubility ([1]; oil or lipid, excipient Gelucire 50/13, read-out: Limit of solubility in Gelucire 50/13) of the same molecule?
**A.** 150 mg/mL (≈ 252 mM)

**Q.** And the solubility ([1]; oil or lipid, excipient Labrafac Lipo WL 1349, heating and sonication if necessary, read-out: Limit of solubility in Labrafac Lipo WL 1349)?
**A.** > 200 mg/mL

**Q.** What about the solubility ([1]; oil or lipid, excipient Labrafac PG, read-out: Limit of solubility in Labrafac PG) of the same molecule?
**A.** > 200 mg/mL

**Q.** And the solubility ([1]; oil or lipid, excipient Labrafil M 1944 CS, read-out: Limit of solubility in Labrafil M 1944 CS)?
**A.** > 200 mg/mL

**Q.** And the solubility ([1]; oil or lipid, excipient Labrafil M 2125 CS, read-out: Limit of solubility in Labrafil M 2125 CS)?
**A.** > 200 mg/mL

**Q.** And the solubility ([1]; oil or lipid, excipient Labrafil M 2130 CS, read-out: Limit of solubility in Labrafil M 2130 CS)?
**A.** > 200 mg/mL

**Q.** What about the solubility ([1]; oil or lipid, excipient Labrasol, read-out: Limit of solubility in Labrasol) of the same molecule?
**A.** > 200 mg/mL

**Q.** What about the solubility ([1]; oil or lipid, excipient Lauroglycol 90, read-out: Limit of solubility in Lauroglycol 90) of the same molecule?
**A.** > 200 mg/mL

**Q.** What about the solubility ([1]; oil or lipid, excipient Lauroglycol FCC, read-out: Limit of solubility in Lauroglycol FCC) of the same molecule?
**A.** > 200 mg/mL

**Q.** And the solubility ([1]; oil or lipid, excipient Maisine 35-1, read-out: Limit of solubility in Maisine 35-1)?
**A.** > 200 mg/mL

**Q.** And the solubility ([1]; oil or lipid, excipient Peceol, read-out: Limit of solubility in Peceol)?
**A.** > 200 mg/mL

**Q.** And the solubility ([1]; oil or lipid, excipient Phosal 50-PG, read-out: Limit of solubility in Phosal 50-PG)?
**A.** > 200 mg/mL

**Q.** What about the solubility ([1]; oil or lipid, excipient Phosal 53 MCT, read-out: Limit of solubility in Phosal 53 MCT) of the same molecule?
**A.** > 200 mg/mL

**Q.** What about the solubility ([1]; oil or lipid, excipient Plurol Oleique CC 497, read-out: Limit of solubility in Plurol Oleique CC 497) of the same molecule?
**A.** > 200 mg/mL

**Q.** And the solubility ([1]; organic solvent or mixture, excipient Ethanol, read-out: Limit of solubility in Ethanol)?
**A.** > 200 mg/mL

**Q.** And the solubility ([1]; organic solvent or mixture, excipient PEG-200, read-out: Limit of solubility in PEG-200)?
**A.** > 200 mg/mL

**Q.** And the solubility ([1]; organic solvent or mixture, excipient PEG-300, read-out: Limit of solubility in PEG-300)?
**A.** > 200 mg/mL

**Q.** What about the solubility ([1]; organic solvent or mixture, excipient PEG-400, read-out: Limit of solubility in PEG-400) of the same molecule?
**A.** > 200 mg/mL

**Q.** What about the solubility ([1]; organic solvent or mixture, excipient Propylene Glycol, read-out: Limit of solubility in Propylene Glycol) of the same molecule?
**A.** > 200 mg/mL

**Q.** And the solubility ([1]; organic solvent or mixture, excipient Transcutol, read-out: Limit of solubility in Transcutol)?
**A.** > 200 mg/mL

**Q.** What about the Degradation ([3]; after 15 days of storage at −20° C.) of the same molecule?
**A.** No significant degradation

**Q.** And the Short-term stability ([3]; room temperature (about 20° C.) for 8 days)?
**A.** acceptable

**Q.** What about the Degradation ([3]; room temperature, by 15 days) of the same molecule?
**A.** approximately 9%

**Q.** And the solubility (physchem)?
**A.** > 250 mg/mL
